Reference: patent US20220074923A1, “METHODS OF IDENTIFYING PARKIN-MEDIATED MITOPHAGY ACTIVATING AGENTS” (THE GOVERNING COUNCIL OF THE UNIVERSITY OF TORONTO, priority 2018, published 2022)

Tests used:
[1] = test system: HEK293 GFP Parkin cells; test: High throughput small molecule screen for Parkin recruitment to mitochondria (high content imaging); assay type: cell-based; conditions: for rank in the kinase inhibitor library screen (rank order by z-score): 4 μM, 16 h, then CCCP 2 h, rank out of 480, low rank = activator of Parkin recruitment, high rank = inhibitor
Protocol: 10 uL of 0.1 mg/mL Poly-D-Lys solution was added to 384-well plates for 5 minutes, followed by a PBS wash. Plates were dried for at least 2 hours. 50 μL of 600 000 HEK293 GFP Parkin cell/mL of DMEM was dispensed into each well. After 24 hours incubation to allow the cells to adhere, 200 nL of small molecules (or DMSO in columns 1, 2, 23 and 24) were pinned. Following a 16-hour incubation, 200 nL of 5 mM CCCP were added to all wells except columns 1 and 2, into which 200 nL of DMSO was added. Following 2-hour incubation, cells were fixed with 4% paraformaldehyde (PFA) and stained with 50 μL of 1 μg/mL DAPI solution for 15 minutes. After the final PBS wash, plates were ready for high content microscopy.
Images were acquired on IN Cell Analyzer 6000 (GE Healthcare), equipped with sCMOS camera (2048×2048), and 20x/0.45 NA Plan Fluor objective (Nikon) in open aperture mode using 1×1 binning. Image analysis was performed using Columbus Image Analysis System (PerkinElmer). Nuclei were initially detected in DAPI channel, followed by whole cell segmentation in GFP channel. Using PhenoLOGIC machine learning plug-in, cells were split into 2 sub-populations: cells with even GFP-Parkin distribution and cells where GFP-Parkin was localized to mitochondria. The percentage of cells with mitochondrial GFP-Parkin was determined per well. The molecules were then rank ordered based on z-score, which is calculated using the formula: […]
where x is the percentage of cells with mitochondrial GFP-Parkin for a specific small molecule, μ is the average percentage of cells with mitochondrial Parkin in positive control columns 23 and 24, where cells are treated with CCCP only.
These cell lines were screened across 2 biological replicates with compounds from the kinase inhibitor (n=480) and Prestwick (n=1120) collections. The 3-day screening protocol consisted of (1) seeding cells, (2) pinning small molecules at 4 μM concentration and (3) inducing mitophagy with CCCP, followed by processing of plates for high content imaging. Following image acquisition, DAPI staining was used to segment cells within each image. Supervised machine learning was used to classify cells into two classes: (1) cells with cytosolic Parkin distribution and (2) those with Parkin localized to mitochondria. […] Compounds which increased the proportion of class 2 cells across 2 biological replicates, compared to the CCCP-only treated cells (FIG. 10), as indicated by their z-score (FIG. 11), were considered hits.

[2] = test system: S2R+ cells; test: mitoSOX mitochondrial superoxide staining; assay type: cell-based; conditions: toxin alone
Protocol: A) Staining was performed with mitoSOX Red Mitochondrial Superoxide dye. B) Quantification of the fluorescence intensity of the mitoSOX probe in the indicated treatments (n=3). Data is presented as mean±s.e.m. P-values were determined by paired student's t-test, *P-value<0.05.
Whether SR3677 may protect against paraquat-induced phenotypes by interfering with paraquat's activity was also assessed. Paraquat gives rise to mitochondrial superoxide species that can be detected using mitoSOX, a fluorescent probe that is targeted to mitochondria, where it may be oxidized by superoxides. The oxidized mitoSOX species fluoresces upon encountering nucleic acid. The fluorescence intensity of Schneider's S2-R^+ cells, a cell line derived from dissociated embryos with a flat morphology amenable to imaging, was assessed following treatments with paraquat or paraquat and SR3677.

[3] = test system: differentiated SH-SY5Y cells; test: Cell viability determination (ATP levels normalized to protein); assay type: cell-based; conditions: 500 μM, 24 hours
Protocol: SH-SY5Y cells were differentiated according to previously established protocol consisting of sequential treatment with retinoic acid followed by brain-derived neurotrophic factor^10. Cells were then seeded into white 96-well plates with white bottom and allowed to adhere overnight. Varying doses of SR3677 were combined with 500 μM paraquat and administered for 24 hours. Controls treated with 0.5 μM SR3677, equivalent volume DMSO and paraquat alone were also included. Following 24-hour incubation, cell media was aspirated and THE lysis buffer (50 mM Tris-HCl, 100 mM NaCl, 0.1 mM EDTA) containing protease inhibitor cocktail was added to each well. Half of the lysate volume was removed and aliquoted into a separate 96-well plate. ATP levels were measured in the opaque plate using the ATP determination (ThermoFisher A22066) assay kit and protein concentrations were measured using the Pierce BCA (ThermoFisher #23225) assay kit. ATP levels were normalized to protein concentration and then by the ratio for cells treated with paraquat alone in a control well on each plate.

[4] = test system: Canton(S) flies; assay type: in vivo, Drosophila; conditions: 10 mM paraquat in food
Protocol: Fresh vials containing standard fly food supplemented with the indicated treatments were changed out every 2 days. The number of flies surviving each day was counted and log-rank tests were performed to determine statistical significance. […] The number of flies to climb beyond 9.5 cm every 10 seconds was assessed. The percentage of flies in each treatment to cross this line was determined. The climbing ability of each treatment was normalized to the control group treated with water only. […] Log-rank tests were performed to determine p-values for survival analyses (a, b, g), *P<0.05. P-values were determined by one-tailed paired student's t-test for all climbing assays (c-e, h), *P<0.05. Data is expressed as mean±s.e.m. All error bars represent s.e.m
Drosophila aged 7 days are fed food supplemented with either water (control), 1 mM SR3677, 10 mM paraquat or SR3677 in combination with paraquat. The survival of flies was recorded each day following administration of the treatments and climbing abilities were tested every 2 days by performing negative geotaxis assays.

[5] = test system: Drosophila; assay type: in vivo; conditions: Canton(S), 10 mM paraquat
Protocol: Fresh vials containing standard fly food supplemented with the indicated treatments were changed out every 2 days. The number of flies surviving each day was counted and log-rank tests were performed to determine statistical significance. 20 flies per treatment, n=5 (c) The climbing ability of flies treated as described in (a and bin) was assessed 4 days following initial administration of treatments. The number of flies to climb beyond 9.5 cm every 10 seconds was assessed. The percentage of flies in each treatment to cross this line was determined. The climbing ability of each treatment was normalized to the control group treated with water only. 20 flies per treatment, n=5. (d) The climbing ability of UAS-park^RNAi and ddc-GAL4>UAS-park^RNAi flies fed either paraquat or paraquat in combination with SR3677. 20 flies per treatment, n=7. (e) Proteins lysates from UAS-park^RNAi or tubulin>UAS-park^RNAi whole flies were separated by SDS-PAGE. Immunoblotting with anti-Parkin and anti-actin antibody was performed. (f) The climbing ability of TH-GAL flies fed either paraquat or paraquat in combination with SR3677. (g) Survival of heteroplasmic mt:Coll^T300l flies fed fly food supplemented with water or 2 mM SR3677 and wild-type Canton(S) flies (n=3 independent experiments). (h) The climbing ability of heteroplasmic mt:Coll^T300l flies fed either water or 2 mM SR3677 for 7 days. Log-rank tests were performed to determine p-values for survival analyses (a, b, g), *P<0.05. P-values were determined by one-tailed paired student's t-test for all climbing assays (c-e, h), *P<0.05. Data is expressed as mean±s.e.m. All error bars represent s.e.m
Male Canton(S) Drosophila were aged 7 days prior to feeding with standard fly food supplemented with water, 10 mM paraquat, 1 mM SR3677, or with combinations of these chemicals. Flies were placed into new vials containing fresh food supplemented with the treatments previously administered and 2 days later, climbing assays were performed. Flies were placed into plastic cylinder vials and tapped down, so all flies fell to the bottom. The number of flies to climb beyond 12.5 cm was counted every 10 s and values are represented as the percentage of total flies in each treatment group.

[6] = cited from earlier work
[7] = test system: HEK293 GFP Parkin cells; test: Immunoblotting of mitochondrial protein degradation after CCCP; assay type: cell-based; conditions: 10 μM CCCP
Protocol: (a) HEK293 GFP Parkin cells were treated with varying doses of SR3677 for 2 hours prior to induction of mitophagy with 10 μM CCCP for one hour. The percentage of cells with mitochondrial Parkin increased in a dose-dependent manner. […] Cell lysates were harvested, proteins were separated by SDS-PAGE and immunoblotting was performed with anti-Mfn2 and anti-actin antibodies. (c) Ponceau VDAC1 levels in each sample normalized to Ponceau staining. (d) Mfn2/actin levels in CCCP treated cells. (e) Densitometry analysis was performed to quantify Mfn2 and VDAC1 levels in each sample (n=4 independent experiments).
HEK293 GFP Parkin cells co-treated with 0.5 μM SR3677 or DMSO and 10 μM CCCP for the indicated time (hours). Cell lysates were separated by SDS-PAGE and immunoblotting was performed to assess turnover of IMM/matrix substrates (A) ATP5A, (B) UQCRC2 and (C) COXIV. Densitometry analysis was performed. Protein levels were normalized to Ponceau. Data is expressed as mean±s.e.m (n=6, 7 and 8 for a, b and c, respectively. 4) P-values were determined by paired student's t-test, *P<0.05.
Lysates were harvested using lysis buffer (0.1M Tris HCl, 0.01% SDS, pH 9) with 1× protease inhibitor cocktail (BioShop, PIC002.1). Lysates were then heated at 95° C. for 20 minutes with vortexing performed at 5-minute intervals. The BCA assay (Pierce, 23227) was performed to determine protein concentration, to standardize protein loading across samples to be compared. 12% SDS-PAGE gels were used to run samples to be analyzed for LC3 conversation and for Tom20 and 10% gels were run for all other samples. Transfer of proteins onto PVDF membrane (Immobilon, IPVH00010) was performed at 110V for 80 minutes or at 36V for 8 hours. Membranes were blocked with 5% skim milk in TBST (1×TBS, 0.1% Tween-20 [BioShop, 1M23298]) for 30 minutes prior to incubation in primary antibodies at a dilution of 1:1000 for all antibodies except anti-ROCK2 and anti-LC3, which were used at a dilution of 1:5000. Visualization of proteins was performed using ECL (BioRad, 11705062).
Densitometry was performed by normalizing bands corresponding to the protein of interest to a loading control such as actin using ImageLab 6.0 software (BioRad).

[8] = test system: HEK293 GFP Parkin cells; test: Parkin recruitment assay; assay type: cell-based
Protocol: HEK293 GFP Parkin cells were seeded into 12-well plates containing coverslips. Cells were treated with small molecules for 2 hours prior to mitophagy induction with 10 μM CCCP, unless indicated otherwise. Following fixation with 4% PFA, immunostaining was carried out using anti-ATP5A primary antibody and anti-mouse Alex Fluor 568.
To measure the percentage of cells with Parkin localized to mitochondria a 2 step process was employed: (1) whole cell segmentation based on GFP Parkin using CellProfiler software and (2) classification into Parkin distribution subpopulation using CellProfiler Analyst. The percentage of cells with Parkin localized to mitochondria was determined in each image. Images were taken at 20× magnification for this experiment, resulting in the classification of at least 300 cells in each treatment group per trial.

[9] = molecular target: ROCK2 (Homo sapiens, UniProt O75116); conditions: biochemical and cell-based assays, previous studies; cited from earlier work
Sequence of ROCK2 (O75116 whole entry): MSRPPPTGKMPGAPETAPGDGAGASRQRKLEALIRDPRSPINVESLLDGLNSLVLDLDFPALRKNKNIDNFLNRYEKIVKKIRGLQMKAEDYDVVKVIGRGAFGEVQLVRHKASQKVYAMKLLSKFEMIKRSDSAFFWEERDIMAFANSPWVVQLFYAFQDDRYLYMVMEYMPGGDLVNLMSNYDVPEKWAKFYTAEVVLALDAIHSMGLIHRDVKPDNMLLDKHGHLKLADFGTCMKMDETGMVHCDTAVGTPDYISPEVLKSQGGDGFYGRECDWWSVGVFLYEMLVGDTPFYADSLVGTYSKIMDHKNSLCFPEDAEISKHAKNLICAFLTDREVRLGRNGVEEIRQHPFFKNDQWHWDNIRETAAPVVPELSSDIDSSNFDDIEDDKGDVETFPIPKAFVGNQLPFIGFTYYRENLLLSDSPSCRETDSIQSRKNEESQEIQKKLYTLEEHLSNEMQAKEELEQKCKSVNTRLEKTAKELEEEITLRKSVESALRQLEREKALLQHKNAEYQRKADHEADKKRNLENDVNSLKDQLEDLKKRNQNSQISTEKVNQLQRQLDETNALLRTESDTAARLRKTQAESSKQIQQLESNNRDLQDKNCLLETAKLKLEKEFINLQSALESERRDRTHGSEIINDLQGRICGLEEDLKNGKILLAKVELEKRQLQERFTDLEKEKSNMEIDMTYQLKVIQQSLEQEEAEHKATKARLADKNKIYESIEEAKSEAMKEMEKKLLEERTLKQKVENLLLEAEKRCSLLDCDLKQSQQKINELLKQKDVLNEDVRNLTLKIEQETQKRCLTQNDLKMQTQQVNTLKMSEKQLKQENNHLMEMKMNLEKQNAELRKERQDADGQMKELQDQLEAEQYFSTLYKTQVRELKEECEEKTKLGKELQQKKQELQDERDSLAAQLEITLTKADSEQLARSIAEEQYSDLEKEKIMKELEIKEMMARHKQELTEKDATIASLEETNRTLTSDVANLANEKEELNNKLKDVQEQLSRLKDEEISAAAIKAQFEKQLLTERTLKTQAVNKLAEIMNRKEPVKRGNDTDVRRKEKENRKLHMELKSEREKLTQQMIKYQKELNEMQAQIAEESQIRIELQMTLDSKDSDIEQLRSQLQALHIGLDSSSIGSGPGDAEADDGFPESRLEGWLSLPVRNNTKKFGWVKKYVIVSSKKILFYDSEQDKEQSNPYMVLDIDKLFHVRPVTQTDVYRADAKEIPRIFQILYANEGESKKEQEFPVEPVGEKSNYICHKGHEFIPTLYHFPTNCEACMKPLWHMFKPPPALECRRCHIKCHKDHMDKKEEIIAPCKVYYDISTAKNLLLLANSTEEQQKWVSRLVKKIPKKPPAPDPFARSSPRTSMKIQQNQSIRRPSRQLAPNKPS

NC(=O)Nc1cc(-c2cccc(F)c2)sc1C(=O)N[C@H]1CCCNC1 [AZD-7762]
rank in the kinase inhibitor library screen (rank order by z-score) [1]: 413/480

O=c1[nH]c2ccc(Cl)cc2c(N[C@@H]2CN3CCC2CC3)c1-c1nc2ccccc2[nH]1 [CHIR-124]
rank in the kinase inhibitor library screen (rank order by z-score) [1]: 403/480

NC(=O)c1ccc2nc(-c3ccc(Oc4ccc(Cl)cc4)cc3)[nH]c2c1 [Chk2 inhibitor II]
rank in the kinase inhibitor library screen (rank order by z-score) [1]: 402/480

C[n+]1ccc(-c2cc[n+](C)cc2)cc1 [Paraquat]
fluorescence intensity of mitoSOX [2]: increases the fluorescence intensity of mitoSOX
cell viability, paraquat alone [3]: reduced the viability of cells
survival of flies, paraquat alone [4]: reduced
climbing ability, paraquat alone [5]: impairs the climbing ability of flies over time

CN[C@@H]1C[C@H]2O[C@@](C)([C@@H]1OC)n1c3ccccc3c3c4c(c5c6ccccc6n2c5c31)C(=O)NC4 [Staurosporine]
position among hits of the screen ([1]; known activator of Parkin-mediated mitophagy): ≤ 0.3%

Cc1cnc(Nc2ccc(OCCN3CCCC3)cc2)nc1Nc1cccc(S(=O)(=O)NC(C)(C)C)c1 [TG-101348]
rank in the kinase inhibitor library screen (rank order by z-score) [1]: 418/480

C[C@@H](N)c1ccc(C(=O)Nc2ccnc3[nH]ccc23)cc1 [Y39983]
cell permeability [6]: poor cell permeability
concentration administered to enhance Mfn2 degradation [7]: 10 µM
Mfn2 degradation following CCCP ([7]; 2 h pre-treatment, Y39983 10 μM, SR3677 0.5 μM): Increased degradation of Mfn2
rank in the kinase inhibitor library screen (rank order by z-score) [1]: 5/480
Parkin recruitment on re-test ([8]; 10 μM, 2-hour treatment, CCCP): recapitulated the effects observed following overnight incubation
Parkin distribution in the absence of CCCP ([8]; compound alone): diffuse
ROCK2 inhibition [9]: sufficiently inhibit both ROCK1 and ROCK2

CC(C)(C)OO [luperox]
fluorescence intensity of mitoSOX [2]: increases the fluorescence intensity of mitoSOX

O=C(Nc1ccncc1)Nc1c(Cl)cc(Cl)cc1Cl [rho kinase inhibitor II]
class in the screen (FIG. 1b) ([1]; ROCK inhibitors, 4 μM plus CCCP): Enhancers of Parkin recruitment
